Laboratory results published in PubChem BioAssay AID2060621 (Molecular Pharmacology Branch, DTP, NCI, 2025).
pIC50: −log10 of the molar value.

Tested on: 324938-238-R-J1-PDC complex spheroids viability
Assay: Anticancer human tumor 324938-238-R-J1-PDC patient-derived bladder carcinoma cell line growth inhibition [CLK]
Conditions: for pIC50: curve of first compound; for viability, T/C: stronger effect = lower value
Method in brief: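 Patient-derived tumor cells grown as complex spheroids with HUVEC endothelial cells and mesenchymal stem cells, treated with drug combinations. Concentrations descend in half-log steps from near clinical Cmax, or from 10 microM if Cmax unknown.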

[1] = second compound 0.0316 µM, first compound 0.0316 µM
[2] = second compound 0.0316 µM, first compound 0.1 µM
[3] = second compound 0.0316 µM, first compound 0.316 µM
[4] = second compound 0.0316 µM, first compound 1 µM
[5] = second compound 0.0316 µM, first compound 3.16 µM
[6] = second compound 0.0316 µM, first compound 10 µM
[7] = second compound 0.1 µM, first compound 0.0316 µM
[8] = second compound 0.1 µM, first compound 0.1 µM
[9] = second compound 0.1 µM, first compound 0.316 µM
[10] = second compound 0.1 µM, first compound 1 µM
[11] = second compound 0.1 µM, first compound 3.16 µM
[12] = second compound 0.1 µM, first compound 10 µM
[13] = second compound 0.316 µM, first compound 0.0316 µM
[14] = second compound 0.316 µM, first compound 0.1 µM
[15] = second compound 0.316 µM, first compound 0.316 µM
[16] = second compound 0.316 µM, first compound 1 µM
[17] = second compound 0.316 µM, first compound 3.16 µM
[18] = second compound 0.316 µM, first compound 10 µM
[19] = second compound 1 µM, first compound 0.0316 µM
[20] = second compound 1 µM, first compound 0.1 µM
[21] = second compound 1 µM, first compound 0.316 µM
[22] = second compound 1 µM, first compound 1 µM
[23] = second compound 1 µM, first compound 3.16 µM
[24] = second compound 1 µM, first compound 10 µM
[25] = second compound 3.16 µM, first compound 0.0316 µM
[26] = second compound 3.16 µM, first compound 0.1 µM
[27] = second compound 3.16 µM, first compound 0.316 µM
[28] = second compound 3.16 µM, first compound 1 µM
[29] = second compound 3.16 µM, first compound 3.16 µM
[30] = second compound 3.16 µM, first compound 10 µM
[31] = second compound 10 µM, first compound 0.0316 µM
[32] = second compound 10 µM, first compound 0.1 µM
[33] = second compound 10 µM, first compound 0.316 µM
[34] = second compound 10 µM, first compound 1 µM
[35] = second compound 10 µM, first compound 3.16 µM
[36] = second compound 10 µM, first compound 10 µM
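Note: viability read after seven days of drug exposure.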
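Throughout, for viability, T/C: 100% = DMSO vehicle control wells.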

In the case of `COc1ccc([C@@H](O)c2cc(-c3ncnc4cc(N5CCOCC5)ccc34)c(F)cc2Cl)nn1` + CNC(=O)c1ccc(Nc2nc(OC3CCCC3)c3c(-c4ccc5nc(C)oc5c4)c[nH]c3n2)c(OC)c1, the pIC50 (second compound 0.0316 µM) was 5.42, the pIC50 (second compound 0.1 µM) was > 7.50 and the pIC50 (second compound 0.316 µM) was > 7.50. The pIC50 (second compound 1 µM) was > 7.50, the pIC50 (second compound 3.16 µM) was > 7.50 and the pIC50 (second compound 10 µM) was > 7.50. For the same compound, the viability, T/C [1] was 86.8%, the viability, T/C [2] was 76.4% and the viability, T/C [3] was 70.3%. For the same compound, the viability, T/C [4] was 63.5%, the viability, T/C [5] was 56.5% and the viability, T/C [6] was 35.9%. It also gave a viability, T/C [7] of 27.6%, a viability, T/C [8] of 26.3% and a viability, T/C [9] of 22.9%. It also gave a viability, T/C [10] of 28%, a viability, T/C [11] of 29% and a viability, T/C [12] of 22.7%. It also gave a viability, T/C [13] of 18.5%, a viability, T/C [14] of 20.5% and a viability, T/C [15] of 17.9%. The viability, T/C [16] was 16.5%, the viability, T/C [17] was 14.6% and the viability, T/C [18] was 16.1%. For the same compound, the viability, T/C [19] was 16%, the viability, T/C [20] was 14.5% and the viability, T/C [21] was 16%. It also gave a viability, T/C [22] of 14.8%, a viability, T/C [23] of 12.9% and a viability, T/C [24] of 11.2%. The viability, T/C [25] was 18.1%, the viability, T/C [26] was 14.2% and the viability, T/C [27] was 16.2%. For the same compound, the viability, T/C [28] was 14.7%, the viability, T/C [29] was 14.9% and the viability, T/C [30] was 9.35%. The viability, T/C [31] was 15.6%, the viability, T/C [32] was 16.7% and the viability, T/C [33] was 16.9%. For the same compound, the viability, T/C [34] was 16.8%, the viability, T/C [35] was 11.1% and the viability, T/C [36] was 12.1%.
For `COc1cccc2c1C(=O)c1c(O)c3c(c(O)c1C2=O)CC(O)(C(=O)CO)CC3OC1CC(N)C(O)C(C)O1` (centres undefined) + CNC(=O)c1ccc(Nc2nc(OC3CCCC3)c3c(-c4ccc5nc(C)oc5c4)c[nH]c3n2)c(OC)c1, the pIC50 (second compound 0.0316 µM) was > 7.50, the pIC50 (second compound 0.1 µM) was > 7.50 and the pIC50 (second compound 0.316 µM) was > 7.50. The pIC50 (second compound 1 µM) was > 7.50, the pIC50 (second compound 3.16 µM) was > 7.50 and the pIC50 (second compound 10 µM) was > 7.50. The viability, T/C [1] was 19.3%, the viability, T/C [2] was 16.8% and the viability, T/C [3] was 9.74%. For the same compound, the viability, T/C [4] was 0.7%, the viability, T/C [5] was 0.12% and the viability, T/C [6] was 0.14%. It also gave a viability, T/C [7] of 18.5%, a viability, T/C [8] of 20.2% and a viability, T/C [9] of 9.65%. For the same compound, the viability, T/C [10] was 0.48%, the viability, T/C [11] was 0.11% and the viability, T/C [12] was 0.15%. It also gave a viability, T/C [13] of 19.1%, a viability, T/C [14] of 16.3% and a viability, T/C [15] of 9.12%. It also gave a viability, T/C [16] of 0.49%, a viability, T/C [17] of 0.16% and a viability, T/C [18] of 0.13%. It also gave a viability, T/C [19] of 17.2%, a viability, T/C [20] of 11.7% and a viability, T/C [21] of 7.13%. For the same compound, the viability, T/C [22] was 0.58%, the viability, T/C [23] was 0.14% and the viability, T/C [24] was 0.15%. The viability, T/C [25] was 20.2%, the viability, T/C [26] was 12.2% and the viability, T/C [27] was 6.62%. For the same compound, the viability, T/C [28] was 0.36%, the viability, T/C [29] was 0.14% and the viability, T/C [30] was 0.16%. It also gave a viability, T/C [31] of 18.3%, a viability, T/C [32] of 13.4% and a viability, T/C [33] of 5.95%. It also gave a viability, T/C [34] of 0.31%, a viability, T/C [35] of 0.19% and a viability, T/C [36] of 0.23%.
